These results are taken from patent US9062043B2, “Fused tricyclic compounds as serine-threonine protein kinase and PARP modulators” (SENHWA BIOSCIENCES, INC., priority 2006, dated 2015).

Holding throughout (assay type): cell-based
One test has as its system Jurkat. As to the kind of experiment: Cell proliferation assay, Alamar Blue, Jurkat.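 Also: cells exposed to compound for about 4 days at 37 °C, then Alamar Blue added and fluorescence read after about 4 h, controls given medium without drug.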 As to conditions: Homo sapiens, Table 18.
For test [1], the system named is MiaPaca human pancreatic carcinoma cells. Put plainly: Cell proliferation assay, Alamar Blue, MiaPaca. As to conditions: MIA PaCa-2, Table 18. As to the method: (§1) A representative cell-proliferation assay protocol using Alamar Blue dye (stored at 4° C., use 20 ul per well) is described hereafter.
(§2) c. Plate 4,000-5,000 cells per well in 100 μl of medium and seed into a 96-well plate according to the following plate layout. Add cell culture medium only to wells B10 to B12. Wells B1 to B9 have cells but no compound added.
(§3) d. Add 100 μl of 2× drug dilution to each well in a concentration shown in the plate layout above. At the same time, add 100 μl of media into the control wells (wells B10 to B12). Total volume is 200 μl/well.
(§4) e. Incubate four (4) days at 37° C., 5% CO2 in a humidified incubator.
(§5) f. Add 20 μl Alamar Blue reagent to each well.
(§6) g. Incubate for four (4) hours at 37° C., 5% CO2 in a humidified incubator.
(§7) h. Record fluorescence at an excitation wavelength of 544 nm and emission wavelength of 590 nm using a microplate reader.
(§8) In the assays, cells are cultured with a test compound for approximately four days, the dye then is added to the cells and fluorescence of […] dye is detected after approximately four hours. Different types of cells can be utilized in the assays (e.g., HCT-116 human colorectal carcinoma cells, PC-3 human prostatic cancer cells and MiaPaca human pancreatic carcinoma cells). Anti-proliferative effects of representative compounds are provided hereafter.
A general note: Alamar Blue is a resazurin reagent that responds to reducing activity.

For test [2], the system named is HCT-116 human colorectal carcinoma cells. As to the kind of experiment: Cell proliferation assay, Alamar Blue, HCT-116.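 Also: cells exposed to compound for about 4 days, then Alamar Blue added and fluorescence read after about 4 h, medium-only wells as control.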 As to conditions: HCT-116, Table 18.
The test system of the next test is BxPC3. As to the kind of experiment: Cell proliferation assay, Alamar Blue, BxPC3. As to conditions: Homo sapiens, BXPC-3; Table 19b. As to the method: as §2, §3, §4, §5, §6, §7, §8
In a further test the test system is PanC1. As to the kind of experiment: Cell proliferation assay, Alamar Blue, PanC1. As to conditions: Homo sapiens, PANC-1; Table 19b; read-out: IC50 PanC1. The procedure: as §1, §2, §3, §4, §5, §6, §7, §8

In the case of `COC(=O)c1ccc2c(c1)nc(NC1CC1)c1nc(SCc3ccccc3Cl)ncc12` [drawing 1069], the IC50 was determined as 4.67 µM with Jurkat and 32.4 µM in test [1].
On the same counts, the results for `O=C(O)c1ccc2c(c1)nc(NC1CC1)c1nc(SCc3ccccc3Cl)ncc12` [drawing 1072] are 29.3 µM and over 50 µM.
`CCOc1ncc2c(n1)c(NC1CC1)nc1cc(C(=O)O)ccc12` [drawing 1073]: the IC50 in test [2] was over 10 µM; in test [1], over 50 µM.
As for `O=C(O)c1ccc2c(c1)nc(NC1CC1)c1nc(NC3CC3)ncc12` [drawing 1074], the IC50 in the test with Jurkat is 3.45 µM; in test [2], over 10 µM; in test [1], 2.83 µM.
As to `O=C(O)c1ccc2c(c1)nc(NC1CC1)c1nc(NCc3ccccc3)ncc12` [drawing 1075], the IC50 is 8.82 µM in the test on Jurkat, over 10 µM in test [2] and 14.7 µM in test [1].
As to `O=C(O)c1ccc2c(c1)nc(NC1CC1)c1nc(Nc3ccccc3)ncc12` [drawing 1076], the values for the IC50 (in the test on Jurkat; in test [2]; in test [1]) were 4.6 µM, over 10 µM and 2.44 µM, respectively.
As to `O=C(O)c1ccc2c(c1)nc(NCc1cccnc1)c1nc(NC3CC3)ncc12` [drawing 1083], the IC50 is over 10 µM in test [2] and 13.8 µM in test [1].
On the same counts, the results for `O=C(O)c1ccc2c(c1)nc(NCc1ccccc1)c1nc(NC3CC3)ncc12` [drawing 1084] are over 10 µM and 12.9 µM.
Regarding `O=C(O)c1ccc2c(c1)nc(N1CCOCC1)c1nc(NC3CC3)ncc12` [drawing 1085], the concentration for half-maximal inhibition (IC50) in the test with Jurkat was 3.67 µM; in test [1], over 50 µM.
On the same counts, the results for `CC1CCCCN1CCCNc1ncc2c(n1)c(Nc1ccc(F)c(Cl)c1)nc1cc(C(=O)O)ccc12` (centres unmarked) [drawing 1087] are 2.86 µM and 3.16 µM.
As to `Cc1cc(Nc2ncc3c(n2)c(Nc2ccc(F)c(Cl)c2)nc2cc(C(=O)O)ccc23)[nH]n1` [drawing 1093], the IC50 in test [2] was over 10 µM; in test [1], 18.2 µM.
On the same counts, the results for `O=C(O)c1ccc2c(c1)nc(NC1CC1)c1ccncc12` [drawing 1097] are over 10 µM and 26.5 µM.
In the same order, the values of `Nc1ncc2c(n1)c(NC1CC1)nc1cc(C(=O)O)ccc12` [drawing 1102] are over 10 µM and over 50 µM.
In the case of `CCCNc1ncc2c(n1)c(NC1CC1)nc1cc(C(=O)O)ccc12` [drawing 1103], the IC50 was 7.49 µM with Jurkat, over 10 µM in test [2] and 4.65 µM in test [1].
Regarding `O=C(O)c1ccc2c(c1)nc(NCc1ccccc1)c1ccncc12` [drawing 1218], the IC50 in the test with BxPC3 and in the test with PanC1 was over 50 µM each time.
For `C#Cc1cccc(Nc2nc3cc(C(=O)O)ccc3c3cnc(NCC4CCCO4)nc23)c1` (centres unmarked) [drawing 1256], the IC50 in the test on BxPC3 was 1.2 µM; in the test with PanC1, 6.66 µM.
Regarding `C#Cc1cccc(Nc2nc3cc(C(=O)O)ccc3c3cnc(NCC4CC4)nc23)c1` [drawing 1257], the IC50 in the test with BxPC3 was found to be 0.82 µM; in the test on PanC1, 1.3 µM.
On to `COC(=O)c1ccc2c(c1)nc(NC1CC1)c1nc(SCc3ccccc3Cl)ncc12` [drawing 1262], for which the IC50 is 2.12 µM in the test on BxPC3 and 3.48 µM in the test with PanC1.
For `O=C(O)c1ccc2c(c1)nc(NC1CC1)c1nc(SCc3ccccc3Cl)ncc12` [drawing 1265], the figures for the IC50 in the test with BxPC3 and with PanC1 were 45.3 µM and over 50 µM, respectively.
Turning to `CCOc1ncc2c(n1)c(NC1CC1)nc1cc(C(=O)O)ccc12` [drawing 1266], the IC50 is 48.9 µM in the test on BxPC3 and over 50 µM in the test on PanC1.
In the case of `O=C(O)c1ccc2c(c1)nc(NC1CC1)c1nc(NC3CC3)ncc12` [drawing 1267], the IC50 in the test on BxPC3 came to 2.59 µM; with PanC1, 2.6 µM.
In the same order, the values of `O=C(O)c1ccc2c(c1)nc(NC1CC1)c1nc(NCc3ccccc3)ncc12` [drawing 1268] are 10.9 µM and 25.8 µM.
For the compound `O=C(O)c1ccc2c(c1)nc(NC1CC1)c1nc(Nc3ccccc3)ncc12` [drawing 1269], the IC50 in the test with BxPC3 stood at 3.92 µM; in the test on PanC1, 4.02 µM.
Regarding `O=C(O)c1ccc2c(c1)nc(NCc1cccnc1)c1nc(NC3CC3)ncc12` [drawing 1276], the IC50 in the test with BxPC3 and in the test on PanC1 was over 50 µM throughout.
On to `O=C(O)c1ccc2c(c1)nc(NCc1ccccc1)c1nc(NC3CC3)ncc12` [drawing 1277], for which the IC50 came to 22.3 µM in the test with BxPC3 and 19.1 µM with PanC1.
Take `O=C(O)c1ccc2c(c1)nc(N1CCOCC1)c1nc(NC3CC3)ncc12` [drawing 1278]: the IC50 with BxPC3 and in the test with PanC1 was over 50 µM in each case.

What is called IC50 is the concentration that gives 50% inhibition.
